Source: patent US20090142330A1, “Use of inactive-plasmin to treat chronic inflammatory disease and tumors” (The Government of the United States of America as …, priority 2007, published 2009)

Columns and labels:
cyclooxygenase-2 (COX-2) = assay: COX-2 protein in monocyte membranes, Western blot; type: cell-based, human; details: LPS 25 ng/ml; HMW-uPA 30 nM or plasmin 360 nM; FIG. 4A
Description: Cell protein isolation for the determination of COX-2 protein levels were prepared as previously described (Zhang et al., J. Clin. Invest. 99: 894-900, 1997). Briefly, 20×10^6 monocytes in 4 ml of DMEM were cultured in suspension in 17 ml polypropylene tubes overnight in the presence or absence of reagents. The cells were then washed in phosphate buffered saline with protease inhibitors. The cell pellets were resuspended in 250 mM sucrose containing protease inhibitors and sonicated (Ultrasonic Cell Disrupter, Kontes, American Instrument Exchange, Inc., Haverhill, Mass.). Nuclear debris and unbroken cells were pelleted at 100×g and the supernatant microfuged at 1,500×g to pellet cell membrane proteins. Equal amounts of protein were loaded onto 12% Tris Glycine gels. […] Equal loading of samples was measured with mouse anti-β-actin antibodies.
(§1) Western blots for MMP-1, MAPKs and COX-2 were incubated overnight with primary antibodies, washed and analyzed by the addition of Alexa Fluor 680 goat anti-rabbit or Alexa Fluor 750 goat anti-mouse antibodies (Molecular Probes® Inc., Eugene, Oreg.) and the infrared fluorescence detected with the Odyssey infrared imaging system (LI-COR, Lincoln, Nebr.). Densitometry analysis of the bands on the Western blots was determined with the LI-COR software analysis program or the ImageQuant software analysis program (Amersham Biosciences, Piscataway, N.J.).

[1] = test system: MMP-1 production by monocytes; assay: MMP-1 protein in monocyte conditioned media, Western blot; type: cell-based, human
Source text: Reagents. High molecular weight urokinase plasminogen activator (HMW-uPA), low molecular weight uPA (LMW-uPA), amino-terminal fragment-uPA (ATF-uPA) and α2-antiplasmin were obtained from American Diagnostica Inc. (Stamford, Conn.). […] LPS Escherichia coli 05:B55 was purchased from Sigma-Aldrich (St. Louis, Mo.). ERK1/2/phospho-ERK1/2 and p38/phospho-p38 antibodies were from Cell Signaling Technology (Beverly, Mass.). MMP-1 antibodies used were rabbit polyclonal antibodies against MMP-1 (provided by Dr. Henning Birkedal-Hansen, NIDCR/NIH) and a mouse anti-human MMP-1 monoclonal antibody (Chemicon International, Inc., Temecula, Calif.). Rabbit anti-COX-2 antibodies were obtained from Cayman Chemical Company (Ann Arbor, Mich.) and mouse anti-β-actin antibodies were from Chemicon International, Inc., Temecula, Calif.). Purification and culture of human monocytes. Human peripheral blood cells were obtained by leukapheresis of non-disease subjects. The monocyte fraction was purified by counter-flow centrifugal elutriation as previously described (Wahl et al., Cell Immunol. 85: 373-383, 1984; and Wahl et al., “In Current Protocols in Immunology,” eds. John Wiley & Sons, Inc. NY. Vol. 2: 7.6A.1-7.6A.10., 2005) and contained greater than 90% monocytes as determined by morphology and flow cytometry. Monocytes were cultured in serum-free Dulbecco Modified Eagle's Medium (DMEM; Cambrex, Walkersville, Md.) supplemented with 2 mM L-glutamine (Mediatech, Herndon, Va.) and 10 μg/ml gentamycin (Cambrex, Walkersville, Md.). Western blot analysis of MMP-1, MAPKs and COX-2. For MMP-1 determination, purified monocytes were cultured at a density of 5×10^6/ml of DMEM in 12 well polystyrene plates (Corning Incorporated Life Sciences, Lowell, Mass.). After 36 to 48 hours of treatment with reagents, the conditioned media were centrifuged and collected. Bovine serum albumin (BSA; 40 μg/ml) was added to the culture supernatants prior to the precipitation of the proteins with cold ethanol (final concentration, 60%) for at least 15 min at −70° C. The proteins were pelleted by microcentrifuging at 20,800×g for 12 min, washed with ethanol, and lyophilized by rotary evaporation. The lyophilized proteins were resuspended in sodium dodecyl sulfate (SDS)-Laemmli buffer [500 mM Tris-HCl (pH 6.8)/10% SDS/0.01% bromophenol-blue/20% glycerol], reduced with 5% β-mercaptoethanol, heated for 4 min at 100° C., and electrophoresed on a 10 or 12% Tris-glycine gel in SDS running buffer [25 mM Tris-HCl (pH 8.3)/192 mM glycine/[…]]. The proteins were transferred onto 0.45 μm nitrocellulose in a buffer containing 25 mM Tris-HCl (pH 8.3)/192 mM glycine/20% methanol and blocked with 50 mM Tris-HCl (pH 7.5)/150 mM NaCl (TBS) containing 5% nonfat dry milk for at least 1 hour. The blots were then incubated overnight with antibodies against MMP-1.
as §1

## plasmin
cyclooxygenase-2 (COX-2)
  LPS-induced COX-2 protein level: increased
[1]; LPS (25 ng/ml) stimulated monocytes, indicated concentrations, FIG. 1A / 2B
  protein levels of MMP-1: dose-dependent increase
[1]; unstimulated (control) monocytes, no LPS
  induction of MMP-1 protein: did not induce MMP-1
